Assays:
Format in all cases: cell-based, mouse
WT Th17 cells = assay: Nanostring nCounter Th17 codeset (312 genes), SFA- or control-treated WT Th17 cells; settings: WT Th17 cells + SFA
Excerpt: Applicants studied the contribution of lipid saturation to Th17 cell pathogenicity. […] Applicants analyzed the expression of a 312 gene signature of Th17 cell differentiation and function (Yosef et al., 2013) in SFA- or control-treated WT Th17 cells and in PUFA- or control-treated CD5L−/− Th17 cells differentiated with TGF-81+IL-6.
T cell differentiation culture. Naïve CD4+CD44−CD62L+CD25− T cells or Effector memory CD4+CD44+CD62L− were sorted using BD FACSAria sorter and activated with plate-bound anti-CD3 and anti-CD28 antibodies (both at 2 μg/ml) in the presence of cytokines at a concentration of 2.5×10^5 cells/ml. For Th17 differentiation: 2 ng/ml of rhTGFβ1, 2 ng/ml of rhTGFβ3, 25 ng/ml rmIL-6, 20 ng/ml rmIL-18 (all from Miltenyi Biotec) and 20 ng/ml rmIL-23 (R & D systems) were used at various combinations as specified in figures. For Th1 differentiation, 20 ng/ml rmIL-12 (R & D systems); for Th2 differentiation 20 ng/ml rmIL-4 (Miltenyi Biotec); for iTreg differentiation, 2.5 ng/ml of rhTGFβ1 were used (Miltenyi Biotec). For differentiation experiments, cells were harvested at 48 hours. For restimulation experiments, cells were differentiated for 48 hours and resuspended in fresh media with no additional cytokines for 48-72 hours. Cells were re-stimulated with PMA/ionomycin for four hours before analysis for cytokines by intracellular cytokine staining. For experiments with exogenous fatty acid, fatty acids were purchased and resuspended first with serum-free media containing BSA prior being added to culture.
Nanostring nCounter. Nanostring nCounter platform (NanoString Technologies) is used to measure the number of RNA transcripts in RNA samples (FIG. 16I, FIG. 18D). A codeset containing 312 signature genes of Th17 cell differentiation and function as well as 4 additional house-keeping genes were custom-made (Yosef et al., 2013) and used in these experiments. Experimental procedures as detailed by the manufacturer is strictly followed.

Th17 cells [1] = assay: qPCR of gene expression (cyp51, sc4mol, pathogenicity signature) in Th17 cells with exogenous fatty acid
Th17 cells [2] = assay: Flow cytometry and intracellular cytokine staining of T cells; settings: WT Th17 cells differentiated with TGF-β1+IL-6 and expanded using IL-23 with fatty acid
Procedure: WT, CD5L−/− and Rorγt−/− Th17 cells were differentiated with TGF-1+IL-6 for 96h. […] Three independent experiments were performed. […] (FIG. 18E) Naïve WT T cells were activated without polarizing cytokines (Th0) and infected with retrovirus expressing Rorγt in the presence of control-RV or CD5L-RV with or without FF-MAS (5 uM) as a source of Rorγt ligand. Each dot represents an independent infection. (FIG. 18F) WT or CD5L−/− naïve cells were differentiated with TGF-β1+IL-6. At 48h, cells were replated in fresh media with either control or FF-MAS (5 uM) as a source of Rorγt ligand. Cells were harvested for FACS analysis 72h later.
Flow cytometry and intracellular cytokine staining. Sorted naïve T cells were stimulated with phorbol 12-myristate 13-acetate (PMA) (50 ng/ml, Sigma-aldrich), ionomycin (1 μg/ml, Sigma-aldrich) and a protein transport inhibitor containing monensin (Golgistop) (BD Biosciences) for 4 h before detection by staining with antibodies.

[3] = Th17 cells differentiated with TGF-β1+IL-6

SMILES: CCCCCCCCCCCCCCCC(=O)O [SFA, palmitic acid]
- Irf7 expression (Nanostring), normalized to WT (WT Th17 cells): 0.54
- Irf8 expression (Nanostring), normalized to WT (WT Th17 cells): 0.99
- Itga3 expression (Nanostring), normalized to WT (WT Th17 cells): 0.50
- Jak3 expression (Nanostring), normalized to WT (WT Th17 cells): 0.91
- Jun expression (Nanostring), normalized to WT (WT Th17 cells): 1.11
- Kat2b expression (Nanostring), normalized to WT (WT Th17 cells): 0.69
- Klf9 expression (Nanostring), normalized to WT (WT Th17 cells): 0.68
- Klf10 expression (Nanostring), normalized to WT (WT Th17 cells): 0.91
- Klrd1 expression (Nanostring), normalized to WT (WT Th17 cells): 0.92
- Lad1 expression (Nanostring), normalized to WT (WT Th17 cells): 0.91
- Lgals3bp expression (Nanostring), normalized to WT (WT Th17 cells): 0.58
- Litaf expression (Nanostring), normalized to WT (WT Th17 cells): 1.48
- Lpxn expression (Nanostring), normalized to WT (WT Th17 cells): 0.85
- Maf expression (Nanostring), normalized to WT (WT Th17 cells): 0.79
- Maff expression (Nanostring), normalized to WT (WT Th17 cells): 0.99
- Map3k5 expression (Nanostring), normalized to WT (WT Th17 cells): 0.80
- Mbnl3 expression (Nanostring), normalized to WT (WT Th17 cells): 0.71
- Mina expression (Nanostring), normalized to WT (WT Th17 cells): 0.72
- Mt1 expression (Nanostring), normalized to WT (WT Th17 cells): 1.56
- Mt2 expression (Nanostring), normalized to WT (WT Th17 cells): 1.33
- Nfkbie expression (Nanostring), normalized to WT (WT Th17 cells): 0.69
- Nkg7 expression (Nanostring), normalized to WT (WT Th17 cells): 0.62
- Notch2 expression (Nanostring), normalized to WT (WT Th17 cells): 0.78
- Oas2 expression (Nanostring), normalized to WT (WT Th17 cells): 1.28
- Peli2 expression (Nanostring), normalized to WT (WT Th17 cells): 0.88
- Plac8 expression (Nanostring), normalized to WT (WT Th17 cells): 1.04
- Plagl1 expression (Nanostring), normalized to WT (WT Th17 cells): 2.19
- Pmepa1 expression (Nanostring), normalized to WT (WT Th17 cells): 0.74
- Pou2af1 expression (Nanostring), normalized to WT (WT Th17 cells): 1.30
- Prkd3 expression (Nanostring), normalized to WT (WT Th17 cells): 0.73
- Pstpip1 expression (Nanostring), normalized to WT (WT Th17 cells): 1.16
- Rab33a expression (Nanostring), normalized to WT (WT Th17 cells): 1.23
- Rasgrp1 expression (Nanostring), normalized to WT (WT Th17 cells): 0.75
- Rel expression (Nanostring), normalized to WT (WT Th17 cells): 1.20
- Rela expression (Nanostring), normalized to WT (WT Th17 cells): 0.70
- Rfk expression (Nanostring), normalized to WT (WT Th17 cells): 0.79
- Rorc expression (Nanostring), normalized to WT (WT Th17 cells): 1.25
- Sap30 expression (Nanostring), normalized to WT (WT Th17 cells): 1.23
- Sema7a expression (Nanostring), normalized to WT (WT Th17 cells): 1.44
- Serpinb1a expression (Nanostring), normalized to WT (WT Th17 cells): 0.56
- Ski expression (Nanostring), normalized to WT (WT Th17 cells): 0.88
- Slc6a6 expression (Nanostring), normalized to WT (WT Th17 cells): 0.79
- Smad3 expression (Nanostring), normalized to WT (WT Th17 cells): 0.81
- Socs3 expression (Nanostring), normalized to WT (WT Th17 cells): 0.78
- Spp1 expression (Nanostring), normalized to WT (WT Th17 cells): 1.10
- Spry1 expression (Nanostring), normalized to WT (WT Th17 cells): 1.57
- Stat4 expression (Nanostring), normalized to WT (WT Th17 cells): 0.77
- Stat5b expression (Nanostring), normalized to WT (WT Th17 cells): 0.82
- Stat6 expression (Nanostring), normalized to WT (WT Th17 cells): 0.73
- Sult2b1 expression (Nanostring), normalized to WT (WT Th17 cells): 0.38
- Tal2 expression (Nanostring), normalized to WT (WT Th17 cells): 1.15
- Tcf4 expression (Nanostring), normalized to WT (WT Th17 cells): 0.72
- Tgfb1 expression (Nanostring), normalized to WT (WT Th17 cells): 0.83
- Tgfb3 expression (Nanostring), normalized to WT (WT Th17 cells): 0.88
- Tgfbr3 expression (Nanostring), normalized to WT (WT Th17 cells): 0.58
- Tgm2 expression (Nanostring), normalized to WT (WT Th17 cells): 0.78
- Tmem229b expression (Nanostring), normalized to WT (WT Th17 cells): 0.69
- Tnfrsf4 expression (Nanostring), normalized to WT (WT Th17 cells): 1.28
- Tnip2 expression (Nanostring), normalized to WT (WT Th17 cells): 0.90
- Trat1 expression (Nanostring), normalized to WT (WT Th17 cells): 0.61
- Trim25 expression (Nanostring), normalized to WT (WT Th17 cells): 0.89
- Trps1 expression (Nanostring), normalized to WT (WT Th17 cells): 0.84
- Tsc22d3 expression (Nanostring), normalized to WT (WT Th17 cells): 1.06
- Ubiad1 expression (Nanostring), normalized to WT (WT Th17 cells): 0.94
- Vav3 expression (Nanostring), normalized to WT (WT Th17 cells): 0.56
- Xrcc5 expression (Nanostring), normalized to WT (WT Th17 cells): 0.93
- nrp1 expression (Nanostring), normalized to WT (WT Th17 cells): 0.74
- pou2f1 expression (Nanostring), normalized to WT (WT Th17 cells): 1.34
- expression of cyp51 and sc4mol mRNA (Th17 cells [1]; CD5L−/− Th17 cells (TGF-β1+IL-6), fatty acid 25 uM added at 48h, analyzed at 96h): modest effect
- Il22 expression (qPCR) (Th17 cells [1]; [3]): increased
- effector molecule expression of the pathogenicity signature (Il10, Il23r, Ccl5, Csf2, Lag3; qPCR) (Th17 cells [1]; [3]): reciprocally regulated
- IL-17 and IL-23R expression (Th17 cells [2]): only slightly increased

— US11427869B2, “T cell balance gene expression, compositions of matters and methods of use thereof” (THE BROAD INSTITUTE, INC., priority 2015, dated 2022)
